Assays:
phospho-ERK = experiment: Western blot, ERK phosphorylation in SRB1 and NHEK cells; format: cell-based, human; settings: 0.6 μM (NHEK) or 1.2 μM (SRB1)
Text: Figure 2. […] DOI: http://dx.doi.org/10.7554/eLife.00969.010 [drawing 5]

human full-length ZAK = target: T1, human full-length ZAK (Homo sapiens, UniProt Q9NYL2); experiment: In vitro kinase assay (Reaction Biology); format: biochemical
T1 construct: In vitro kinase assays were performed using human full-length ZAK; purchased Reaction Biology

[1] = target: T2, MKK4 (amino acids 33-end) (Homo sapiens, UniProt P45985); experiment: In vitro kinase assay (Reaction Biology); format: biochemical; settings: up to 1 μM
T2 construct: amino acids 33-end MKK4 (JNK1 substrate, ATP 0.1 μM); purchased Reaction Biology
T2 sequence (P45985 33-399 limits assumed): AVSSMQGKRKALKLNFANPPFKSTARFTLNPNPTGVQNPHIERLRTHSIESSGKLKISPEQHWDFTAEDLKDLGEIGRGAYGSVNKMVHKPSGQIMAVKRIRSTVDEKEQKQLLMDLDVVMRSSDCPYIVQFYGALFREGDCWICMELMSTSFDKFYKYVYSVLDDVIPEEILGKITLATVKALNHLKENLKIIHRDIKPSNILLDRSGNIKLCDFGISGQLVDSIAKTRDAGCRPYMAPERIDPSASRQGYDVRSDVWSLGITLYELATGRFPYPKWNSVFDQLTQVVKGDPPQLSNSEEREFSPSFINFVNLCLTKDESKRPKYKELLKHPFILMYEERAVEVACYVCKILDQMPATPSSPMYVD

full length MAP4K5 = target: T3, full length MAP4K5 (Homo sapiens, UniProt Q9Y4K4); experiment: In vitro kinase assay (Reaction Biology); format: biochemical; settings: up to 1 μM
T3 construct: and full length MAP4K5 (MBP substrate, ATP 10 μM) (Reaction Biology); purchased Reaction Biology
T3 sequence (Q9Y4K4 whole entry): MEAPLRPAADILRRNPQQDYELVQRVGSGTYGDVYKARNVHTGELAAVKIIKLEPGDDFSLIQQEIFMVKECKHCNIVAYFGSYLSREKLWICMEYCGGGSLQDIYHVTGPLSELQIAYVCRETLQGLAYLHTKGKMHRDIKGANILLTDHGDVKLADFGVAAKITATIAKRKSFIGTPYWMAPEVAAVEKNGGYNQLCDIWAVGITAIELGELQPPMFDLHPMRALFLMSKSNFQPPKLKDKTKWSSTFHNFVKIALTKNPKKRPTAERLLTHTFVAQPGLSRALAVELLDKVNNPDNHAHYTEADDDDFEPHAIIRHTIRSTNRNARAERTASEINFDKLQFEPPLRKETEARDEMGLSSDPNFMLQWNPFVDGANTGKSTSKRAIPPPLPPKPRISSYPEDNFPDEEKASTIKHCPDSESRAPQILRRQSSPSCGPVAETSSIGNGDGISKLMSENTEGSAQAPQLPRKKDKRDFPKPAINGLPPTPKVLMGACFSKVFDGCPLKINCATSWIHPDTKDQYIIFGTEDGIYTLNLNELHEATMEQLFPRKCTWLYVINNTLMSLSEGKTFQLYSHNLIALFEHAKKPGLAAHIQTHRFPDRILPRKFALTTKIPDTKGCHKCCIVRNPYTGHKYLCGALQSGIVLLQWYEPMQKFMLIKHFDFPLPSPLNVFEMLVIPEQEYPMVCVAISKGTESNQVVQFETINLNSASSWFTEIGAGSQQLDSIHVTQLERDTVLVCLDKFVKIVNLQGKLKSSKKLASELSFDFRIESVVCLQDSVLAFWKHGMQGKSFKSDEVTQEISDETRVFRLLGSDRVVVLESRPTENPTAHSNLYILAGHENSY

SRB1 cells = experiment: UV-induced apoptosis, FACS Annexin V+, TMRE-low; format: cell-based, human; settings: 0.05 μM
HaCaT cells = experiment: UV-induced apoptosis, FACS Annexin V+, TMRE-low; format: cell-based, human; settings: 0.05 μM
phospho-JNK = experiment: Western blot, UV-induced phospho-JNK in cSCC and HaCaT cell lines; format: cell-based, human; settings: 0.05 μM, HaCaT and SRB1 cells
[2] = system: E1A and HRAS^G12V-transformed wild-type (WT) MEFs; experiment: Soft agar colony formation; format: cell-based, mouse; settings: 0.05 μM
[3] = system: E1A and HRAS^G12V-transformed Craf−/− MEFs; experiment: Soft agar colony formation; format: cell-based, mouse; settings: 0.05 μM
[4] = system: A375 and WM35 BRAF^V600E melanoma cell lines; experiment: Growth of BRAF^V600E melanoma cell lines; format: cell-based, human; settings: bioequivalent doses: dabrafenib 0.05 μM, PLX4720 1.0 μM
[5] = Serum concentration in humans; format: in vivo, human; settings: 150 mg PO BID vs vemurafenib 960 mg PO BID
A375 melanoma cell line = settings: ref Greger et al., 2012; cited from earlier work
cSCC in treated patients = settings: 150 mg PO BID, ref Falchook et al., 2012, Hauschild et al., Long et al.; cited from earlier work
[6] = 150 mg PO BID in humans, ref Falchook et al., 2012; cited from earlier work

Cn1cnc2c(F)c(Nc3ccc(Br)cc3Cl)c(C(=O)NOCCO)cc21 [AZD6244]
ERK phosphorylation and activation (phospho-ERK): effectively abrogated

CC(C)(C)c1nc(-c2cccc(NS(=O)(=O)c3c(F)cccc3F)c2F)c(-c2ccnc(N)n2)s1 [dabrafenib]
IC50 (human full-length ZAK; MBP substrate, ATP 2.5 μM, read-out: biochemical IC50): 28.9 ± 2.23 nM
retained activity of ZAK kinase (human full-length ZAK; at 0.01 μM): over 64%
inhibition of MKK4 [1]: no significant inhibition
inhibition of MAP4K5 (full length MAP4K5): no significant inhibition
UV-induced apoptosis (SRB1 cells): fails to suppress
UV-induced apoptosis (HaCaT cells): fails to suppress
UV-induced phospho-JNK induction (phospho-JNK): fails to suppress
colony formation [2]: significant growth advantage
colony formation [3]: fails to confer a significant growth advantage
growth of A375 and WM35 cells [4]: suppress the growth
peak serum concentration, fold lower than mean sustained serum levels of vemurafenib [5]: over 50 fold
GI50 (A375 melanoma cell line): < 10 nM
overall aggregated cSCC rate (cSCC in treated patients): 6.1%
peak serum concentrations [6]: 1.55 µM

Source: PMC3814616, “BRAF inhibitors suppress apoptosis through off-target inhibition of JNK signaling” (eLife, 2013)
